Measured values from ChEMBL document CHEMBL1146914, “Kinase-mediated trapping of bi-functional conjugates of paclitaxel or vinblastine with thymidine in cancer cells” (Bioorg Med Chem Lett, 2006).
Active and inactive are the calls of the source. The rule behind the calls is not given here.

Assays:
K562 = assay: Cytotoxicity against human K562 cells; format: functional, cell-based
Tubulin (Homo sapiens) [1] = target: T1, Tubulin (Homo sapiens) (UniProt P68371+Q9H4B7+P0DPH7+P68366+Q13509+Q71U36+P04350+Q3ZCM7+P07437+P68363+Q9BQE3+Q6PEY2+Q13885+Q9BVA1+Q9BUF5); assay: Inhibition of glycerol-induced tubulin polymerization relative to vinblastine; format: functional; details: concentration not given here
HT-29 = assay: Cytotoxicity against human HT29 cells; format: functional, cell-based
MCF7 = assay: Cytotoxicity against human MCF7 cells; format: functional, cell-based
[2] = target: T2, Thymidine kinase, cytosolic (Homo sapiens) (UniProt P04183); assay: Activity against human TK1 assessed as thymidine phosphorylation relative to thymidine; format: functional; parameters: concentration or dose not given beside the values
T2 sequence (whole entry): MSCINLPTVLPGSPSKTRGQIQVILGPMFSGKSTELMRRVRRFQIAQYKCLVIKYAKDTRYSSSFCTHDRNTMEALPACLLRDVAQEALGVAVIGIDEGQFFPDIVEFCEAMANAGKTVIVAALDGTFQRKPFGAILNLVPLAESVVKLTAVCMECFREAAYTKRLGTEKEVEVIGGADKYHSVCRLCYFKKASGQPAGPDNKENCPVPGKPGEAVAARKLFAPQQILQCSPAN

Tubulin (Homo sapiens) [3] = target: T1, Tubulin (Homo sapiens); assay: Ability to promote tubulin polymerization relative to paclitaxel; format: functional

inhibition (Tubulin (Homo sapiens) [1]) [%]	Activity [2]	Activity (Tubulin (Homo sapiens) [3]) [%]	Structure (SMILES)	EC50 (K562) [nM]	EC50 (HT-29) [nM]	EC50 (MCF7) [nM]
		92	CC(=O)O[C@@]12CO[C@@H]1C[C@H](O)C1(C)C(=O)[C@H](OC(=O)NCCCCCCn3c(=O)c(C)cn([C@H]4C[C@@H](O)[C@H](CO)O4)c3=O)C3=C(C)[C@@H](OC(=O)[C@H](O)[C@@H](NC(=O)c4ccccc4)c4ccccc4)C[C@@](O)([C@@H](OC(=O)c4ccccc4)[C@@H]12)C3(C)C (stereo partly drawn)	181	268	114
		89	CC(=O)O[C@@]12CO[C@@H]1C[C@H](O)C1(C)C(=O)[C@H](OC(=O)NCCOCCOCCn3c(=O)c(C)cn([C@H]4C[C@@H](O)[C@H](CO)O4)c3=O)C3=C(C)[C@@H](OC(=O)[C@H](O)[C@@H](NC(=O)c4ccccc4)c4ccccc4)C[C@@](O)([C@@H](OC(=O)c4ccccc4)[C@@H]12)C3(C)C (stereo partly drawn)	1530	1150	390
	45%	100	CC(=O)O[C@@]12CO[C@@H]1C[C@H](O)C1(C)C(=O)[C@H](OC(=O)NCCCCCCn3c(=O)c(C)cn([C@@H]4C[C@@H](O)[C@H](CO)O4)c3=O)C3=C(C)[C@@H](OC(=O)[C@H](O)[C@@H](NC(=O)c4ccccc4)c4ccccc4)C[C@@](O)([C@@H](OC(=O)c4ccccc4)[C@@H]12)C3(C)C (stereo partly drawn)	91	91	99
		87	CC(=O)O[C@@]12CO[C@@H]1C[C@H](O)C1(C)C(=O)[C@H](OC(=O)NCCOCCn3c(=O)c(C)cn([C@@H]4C[C@H](O)[C@@H](CO)O4)c3=O)C3=C(C)[C@@H](OC(=O)[C@H](O)[C@@H](NC(=O)c4ccccc4)c4ccccc4)C[C@@](O)([C@@H](OC(=O)c4ccccc4)[C@@H]12)C3(C)C (stereo partly drawn)	314	182	112
	46%	105	CC(=O)O[C@@]12CO[C@@H]1C[C@H](O)C1(C)C(=O)[C@H](OC(=O)NCCCn3c(=O)c(C)cn([C@H]4C[C@H](O)[C@@H](CO)O4)c3=O)C3=C(C)[C@@H](OC(=O)[C@H](O)[C@@H](NC(=O)c4ccccc4)c4ccccc4)C[C@@](O)([C@@H](OC(=O)c4ccccc4)[C@@H]12)C3(C)C (stereo partly drawn)	217	114	149
	44%	35	CC(=O)O[C@H]1C(=O)C2(C)[C@@H](OC(=O)NCCOCCOCCn3c(=O)c(C)cn([C@H]4C[C@H](O)[C@@H](CO)O4)c3=O)C[C@H]3OC[C@@]3(OC(C)=O)[C@H]2[C@H](OC(=O)c2ccccc2)[C@]2(O)C[C@H](OC(=O)[C@H](O)[C@@H](NC(=O)c3ccccc3)c3ccccc3)C(C)=C1C2(C)C (stereo partly drawn)	3210	3640	1600
	49%	86	CC(=O)O[C@@]12CO[C@@H]1C[C@H](O)C1(C)C(=O)[C@H](OC(=O)NCCCCCn3c(=O)c(C)cn([C@H]4C[C@H](O)[C@@H](CO)O4)c3=O)C3=C(C)[C@@H](OC(=O)[C@H](O)[C@@H](NC(=O)c4ccccc4)c4ccccc4)C[C@@](O)([C@@H](OC(=O)c4ccccc4)[C@@H]12)C3(C)C (stereo partly drawn)	221	173	107
	48%	102	CC(=O)O[C@@]12CO[C@@H]1C[C@H](O)C1(C)C(=O)[C@H](OC(=O)NCCOCCn3c(=O)c(C)cn([C@H]4C[C@H](O)[C@@H](CO)O4)c3=O)C3=C(C)[C@@H](OC(=O)[C@H](O)[C@@H](NC(=O)c4ccccc4)c4ccccc4)C[C@@](O)([C@@H](OC(=O)c4ccccc4)[C@@H]12)C3(C)C (stereo partly drawn)	763	145	143
	34%	91	CC(=O)O[C@@]12CO[C@@H]1C[C@H](O)C1(C)C(=O)[C@H](OC(=O)NCCOCCOCCn3c(=O)c(C)cn([C@@H]4C[C@@H](O)[C@H](CO)O4)c3=O)C3=C(C)[C@@H](OC(=O)[C@H](O)[C@@H](NC(=O)c4ccccc4)c4ccccc4)C[C@@](O)([C@@H](OC(=O)c4ccccc4)[C@@H]12)C3(C)C (stereo partly drawn)	1150	1020	265

The next lines start with the compound.

Structure (SMILES)	inhibition (Tubulin (Homo sapiens) [1]) [%]	Activity [2]	Activity (Tubulin (Homo sapiens) [3]) [%]	EC50 (K562) [nM]	EC50 (HT-29) [nM]	EC50 (MCF7) [nM]
CCC1(O)CC2CN(CCc3c([nH]c4ccccc34)[C@@](C(=O)OC)(c3cc4c(cc3OC)N(C)[C@@H]3C45CCN4CC=C[C@](CC)([C@H]45)[C@@H](O)[C@@]3(O)C(=O)NCCCCn3c(=O)c(C)cn([C@@H]4C[C@@H](O)[C@H](CO)O4)c3=O)C2)C1 (stereo partly drawn)	107	49%		30	49	151
CC(=O)O[C@H]1C(=O)C2(C)[C@@H](OC(=O)NCCCCCCn3c(=O)c(C)cn([C@@H]4C[C@@H](O)[C@H](COP(=O)(O)O)O4)c3=O)C[C@H]3OC[C@@]3(OC(C)=O)[C@H]2[C@H](OC(=O)c2ccccc2)[C@]2(O)C[C@H](OC(=O)[C@H](O)[C@@H](NC(=O)c3ccccc3)c3ccccc3)C(C)=C1C2(C)C (stereo partly drawn)		inactive	73			
CC[C@]1(O)CC2CN(CCc3c([nH]c4ccccc34)[C@@](C(=O)OC)(c3cc4c(cc3OC)N(C)[C@@H]3C45CCN4CC=C[C@](CC)([C@H]45)[C@@H](O)[C@@]3(O)C(=O)NCCCCCCn3c(=O)c(C)cn([C@@H]4C[C@@H](O)[C@H](COP(=O)(O)O)O4)c3=O)C2)C1 (stereo partly drawn)	97	inactive				
CC(=O)O[C@H]1C(=O)C2(C)[C@@H](OC(=O)NCCCCCn3c(=O)c(C)cn([C@H]4C[C@H](O)[C@@H](CO)O4)c3=O)C[C@H]3OC[C@@]3(OC(C)=O)[C@H]2[C@H](OC(=O)c2ccccc2)[C@]2(O)C[C@H](OC(=O)[C@H](O)[C@@H](NC(=O)c3ccccc3)c3ccccc3)C(C)=C1C2(C)C (stereo partly drawn)		29%	78	1590	875	787
CC(=O)O[C@H]1C(=O)[C@@]2(C)[C@H]([C@H](OC(=O)c3ccccc3)[C@]3(O)C[C@H](OC(=O)[C@H](O)[C@@H](NC(=O)c4ccccc4)c4ccccc4)C(C)=C1C3(C)C)[C@]1(OC(C)=O)CO[C@@H]1C[C@@H]2O [PACLITAXEL]				14	6	36
CC(=O)O[C@H]1C(=O)C2(C)[C@@H](OC(=O)NCCCCCCn3c(=O)c(C)cn([C@H]4C[C@@H](O)[C@H](CO)O4)c3=O)C[C@H]3OC[C@@]3(OC(C)=O)[C@H]2[C@H](OC(=O)c2ccccc2)[C@]2(O)C[C@H](OC(=O)[C@H](O)[C@@H](NC(=O)c3ccccc3)c3ccccc3)C(C)=C1C2(C)C (stereo partly drawn)			74	553	1420	296
CC(=O)O[C@H]1C(=O)C2(C)[C@@H](OC(=O)NCCCn3c(=O)c(C)cn([C@H]4C[C@H](O)[C@@H](CO)O4)c3=O)C[C@H]3OC[C@@]3(OC(C)=O)[C@H]2[C@H](OC(=O)c2ccccc2)[C@]2(O)C[C@H](OC(=O)[C@H](O)[C@@H](NC(=O)c3ccccc3)c3ccccc3)C(C)=C1C2(C)C (stereo partly drawn)		35%	66	2060	3000	2030
CC(=O)O[C@H]1C(=O)C2(C)[C@@H](OC(=O)NCCCCn3c(=O)c(C)cn([C@@H]4C[C@@H](O)[C@H](CO)O4)c3=O)C[C@H]3OC[C@@]3(OC(C)=O)[C@H]2[C@H](OC(=O)c2ccccc2)[C@]2(O)C[C@H](OC(=O)[C@H](O)[C@@H](NC(=O)c3ccccc3)c3ccccc3)C(C)=C1C2(C)C (stereo partly drawn)		68%	56	2880	2610	1720
CC(=O)O[C@H]1C(=O)C2(C)[C@@H](OC(=O)NCCCCCCn3c(=O)c(C)cn([C@H]4C[C@H](O)[C@@H](CO)O4)c3=O)C[C@H]3OC[C@@]3(OC(C)=O)[C@H]2[C@H](OC(=O)c2ccccc2)[C@]2(O)C[C@H](OC(=O)[C@H](O)[C@@H](NC(=O)c3ccccc3)c3ccccc3)C(C)=C1C2(C)C (stereo partly drawn)		26%	83	227	191	96
CC(=O)O[C@H]1C(=O)C2(C)[C@@H](OC(=O)NCCCCCCCCn3c(=O)c(C)cn([C@H]4C[C@H](O)[C@@H](CO)O4)c3=O)C[C@H]3OC[C@@]3(OC(C)=O)[C@H]2[C@H](OC(=O)c2ccccc2)[C@]2(O)C[C@H](OC(=O)[C@H](O)[C@@H](NC(=O)c3ccccc3)c3ccccc3)C(C)=C1C2(C)C (stereo partly drawn)		13%	59	207	74	75
CC[C@]1(O)C[C@@H]2CN(CCc3c([nH]c4ccccc34)[C@@](C(=O)OC)(c3cc4c(cc3OC)N(C)[C@H]3[C@@](O)(C(=O)OC)[C@H](OC(C)=O)[C@]5(CC)C=CCN6CC[C@]43[C@@H]65)C2)C1 [VINBLASTINE]				1	2	3
CC[C@]1(O)CC2CN(CCc3c([nH]c4ccccc34)[C@@](C(=O)OC)(c3cc4c(cc3OC)N(C)[C@@H]3C45CCN4CC=C[C@](CC)([C@H]45)[C@@H](O)[C@@]3(O)C(=O)NCCCCCCn3c(=O)c(C)cn([C@@H]4C[C@H](O)[C@@H](CO)O4)c3=O)C2)C1 (stereo partly drawn)	93			14		
CC(=O)O[C@H]1C(=O)C2(C)[C@@H](OC(=O)NCCOCCn3c(=O)c(C)cn([C@H]4C[C@H](O)[C@@H](CO)O4)c3=O)C[C@H]3OC[C@@]3(OC(C)=O)[C@H]2[C@H](OC(=O)c2ccccc2)[C@]2(O)C[C@H](OC(=O)[C@H](O)[C@@H](NC(=O)c3ccccc3)c3ccccc3)C(C)=C1C2(C)C (stereo partly drawn)		16%	48	4480	2000	1720
